{
  "source": "paper PMC5927115",
  "about": "(Japanese Journal of Cancer Research : Gann, 2002)",
  "key": {"EGFR [1]": {"system": "EGFR", "details": "cited from earlier work"}, "[2]": {"system": "receptor for fibroblast growth factor", "details": "ATP-binding site of the catalytic domain; cited from earlier work"}, "v-Src [3]": {"biological_target": "T1, v-Src (Rous sarcoma virus, UniProt P00524)", "T1 sequence (P00524 2-526)": "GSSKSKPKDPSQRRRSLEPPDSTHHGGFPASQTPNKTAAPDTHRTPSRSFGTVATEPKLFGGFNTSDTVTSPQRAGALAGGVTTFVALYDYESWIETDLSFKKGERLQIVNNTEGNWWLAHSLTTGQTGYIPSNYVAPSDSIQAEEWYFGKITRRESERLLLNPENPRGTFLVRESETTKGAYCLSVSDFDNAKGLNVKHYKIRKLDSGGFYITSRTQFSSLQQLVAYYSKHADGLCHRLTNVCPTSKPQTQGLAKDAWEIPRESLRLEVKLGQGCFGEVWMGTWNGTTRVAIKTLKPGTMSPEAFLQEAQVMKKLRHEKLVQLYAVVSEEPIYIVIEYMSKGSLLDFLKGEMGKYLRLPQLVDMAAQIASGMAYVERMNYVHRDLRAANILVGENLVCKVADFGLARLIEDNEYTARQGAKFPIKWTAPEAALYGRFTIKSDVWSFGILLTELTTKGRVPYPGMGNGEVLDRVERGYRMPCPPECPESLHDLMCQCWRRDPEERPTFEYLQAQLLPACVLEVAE", "details": "cited from earlier work"}, "PTK": {"system": "PTK", "assay_type": "biochemical", "details": "SR-3Y1 lysate"}, "[4]": {"system": "37 lines of cancer cells derived from human solid tumors", "experiment": "Cell death in panel of 37 lines of cancer cells derived from human solid tumors", "assay_type": "cell-based", "details": "37 human solid tumor lines, 48 h"}, "protein kinase C": {"system": "protein kinase C", "experiment": "Simultaneous protein kinase detection in SR-3Y1 lysate: protein kinase C bands", "assay_type": "biochemical"}, "[5]": {"biological_target": "eukaryotic elongation factor-2 kinase, and calmodulin-dependent protein kinase III (Rattus norvegicus, UniProt P70531)", "sequence (P70531 2-724)": "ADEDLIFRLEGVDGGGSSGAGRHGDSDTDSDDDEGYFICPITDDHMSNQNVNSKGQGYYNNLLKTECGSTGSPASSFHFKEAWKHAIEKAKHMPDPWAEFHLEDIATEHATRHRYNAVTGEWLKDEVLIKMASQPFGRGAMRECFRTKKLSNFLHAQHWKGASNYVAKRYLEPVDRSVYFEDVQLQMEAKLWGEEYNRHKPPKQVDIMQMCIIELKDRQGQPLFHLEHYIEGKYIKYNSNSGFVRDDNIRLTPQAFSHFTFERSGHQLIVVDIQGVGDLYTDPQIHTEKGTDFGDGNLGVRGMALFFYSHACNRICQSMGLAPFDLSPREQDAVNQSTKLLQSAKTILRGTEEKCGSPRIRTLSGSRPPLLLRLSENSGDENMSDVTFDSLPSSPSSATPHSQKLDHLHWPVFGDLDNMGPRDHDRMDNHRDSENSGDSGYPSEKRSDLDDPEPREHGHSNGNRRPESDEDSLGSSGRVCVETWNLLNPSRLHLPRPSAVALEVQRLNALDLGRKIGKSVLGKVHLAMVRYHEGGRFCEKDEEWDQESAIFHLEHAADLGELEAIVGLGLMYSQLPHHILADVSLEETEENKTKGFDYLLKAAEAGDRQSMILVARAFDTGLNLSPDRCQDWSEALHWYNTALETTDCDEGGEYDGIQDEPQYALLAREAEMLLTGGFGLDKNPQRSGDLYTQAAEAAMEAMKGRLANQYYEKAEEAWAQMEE", "experiment": "Simultaneous protein kinase detection in SR-3Y1 lysate: eEF-2K, CaMK III bands", "assay_type": "biochemical"}, "EGFR [6]": {"biological_target": "EGFR (Homo sapiens, UniProt P00533)", "sequence (P00533 25-1210, looked up)": "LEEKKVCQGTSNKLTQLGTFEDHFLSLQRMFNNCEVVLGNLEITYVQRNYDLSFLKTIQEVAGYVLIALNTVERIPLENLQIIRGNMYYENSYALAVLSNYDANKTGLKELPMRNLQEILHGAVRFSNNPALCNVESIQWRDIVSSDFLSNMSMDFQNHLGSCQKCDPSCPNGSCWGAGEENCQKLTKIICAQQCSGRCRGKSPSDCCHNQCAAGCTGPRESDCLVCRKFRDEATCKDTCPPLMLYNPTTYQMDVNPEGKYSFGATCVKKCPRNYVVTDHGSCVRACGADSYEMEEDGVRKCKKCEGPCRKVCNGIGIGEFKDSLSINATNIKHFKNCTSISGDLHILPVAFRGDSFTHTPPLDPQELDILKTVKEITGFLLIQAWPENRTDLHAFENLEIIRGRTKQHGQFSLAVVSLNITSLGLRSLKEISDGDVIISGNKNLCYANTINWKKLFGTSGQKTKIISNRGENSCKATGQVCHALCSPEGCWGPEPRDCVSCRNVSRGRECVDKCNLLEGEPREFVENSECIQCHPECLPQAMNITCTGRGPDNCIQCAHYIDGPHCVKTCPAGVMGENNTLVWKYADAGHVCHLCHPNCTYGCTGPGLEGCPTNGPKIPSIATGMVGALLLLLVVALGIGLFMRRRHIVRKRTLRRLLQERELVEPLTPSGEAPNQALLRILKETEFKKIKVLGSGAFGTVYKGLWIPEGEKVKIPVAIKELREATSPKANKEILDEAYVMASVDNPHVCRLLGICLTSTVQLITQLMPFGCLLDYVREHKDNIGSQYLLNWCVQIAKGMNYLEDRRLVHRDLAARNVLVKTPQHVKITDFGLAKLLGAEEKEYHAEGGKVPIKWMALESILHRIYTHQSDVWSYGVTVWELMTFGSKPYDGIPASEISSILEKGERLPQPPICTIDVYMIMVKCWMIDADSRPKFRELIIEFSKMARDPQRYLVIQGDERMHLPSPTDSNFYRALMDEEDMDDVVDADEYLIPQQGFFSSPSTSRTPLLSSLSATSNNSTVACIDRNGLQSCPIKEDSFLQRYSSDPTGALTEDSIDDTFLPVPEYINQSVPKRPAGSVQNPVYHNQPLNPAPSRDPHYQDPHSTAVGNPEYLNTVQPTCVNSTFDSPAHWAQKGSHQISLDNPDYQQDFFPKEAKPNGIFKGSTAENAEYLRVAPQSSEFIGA", "experiment": "PTK", "assay_type": "biochemical"}, "topoisomerases I": {"system": "topoisomerases I", "details": "cited from earlier work"}, "sarcoma 180 tumor cells": {"system": "sarcoma 180 tumor cells", "details": "mice implanted with sarcoma 180 tumor cells; cited from earlier work"}, "protein kinase A": {"system": "protein kinase A", "experiment": "Simultaneous protein kinase detection in SR-3Y1 lysate: protein kinase A bands", "assay_type": "biochemical"}, "v-Src [7]": {"biological_target": "T1, v-Src", "experiment": "PTK activity of immunopurified v-Src, 32P incorporation into Raytide", "assay_type": "biochemical", "details": "for mode of inhibition of v-Src with respect to ATP: various ATP concentrations"}, "topoisomerases II": {"system": "topoisomerases II", "details": "cited from earlier work"}, "KDR/Flk-1": {"biological_target": "KDR/Flk-1 (Homo sapiens, UniProt P35968)", "sequence (P35968 20-1356)": "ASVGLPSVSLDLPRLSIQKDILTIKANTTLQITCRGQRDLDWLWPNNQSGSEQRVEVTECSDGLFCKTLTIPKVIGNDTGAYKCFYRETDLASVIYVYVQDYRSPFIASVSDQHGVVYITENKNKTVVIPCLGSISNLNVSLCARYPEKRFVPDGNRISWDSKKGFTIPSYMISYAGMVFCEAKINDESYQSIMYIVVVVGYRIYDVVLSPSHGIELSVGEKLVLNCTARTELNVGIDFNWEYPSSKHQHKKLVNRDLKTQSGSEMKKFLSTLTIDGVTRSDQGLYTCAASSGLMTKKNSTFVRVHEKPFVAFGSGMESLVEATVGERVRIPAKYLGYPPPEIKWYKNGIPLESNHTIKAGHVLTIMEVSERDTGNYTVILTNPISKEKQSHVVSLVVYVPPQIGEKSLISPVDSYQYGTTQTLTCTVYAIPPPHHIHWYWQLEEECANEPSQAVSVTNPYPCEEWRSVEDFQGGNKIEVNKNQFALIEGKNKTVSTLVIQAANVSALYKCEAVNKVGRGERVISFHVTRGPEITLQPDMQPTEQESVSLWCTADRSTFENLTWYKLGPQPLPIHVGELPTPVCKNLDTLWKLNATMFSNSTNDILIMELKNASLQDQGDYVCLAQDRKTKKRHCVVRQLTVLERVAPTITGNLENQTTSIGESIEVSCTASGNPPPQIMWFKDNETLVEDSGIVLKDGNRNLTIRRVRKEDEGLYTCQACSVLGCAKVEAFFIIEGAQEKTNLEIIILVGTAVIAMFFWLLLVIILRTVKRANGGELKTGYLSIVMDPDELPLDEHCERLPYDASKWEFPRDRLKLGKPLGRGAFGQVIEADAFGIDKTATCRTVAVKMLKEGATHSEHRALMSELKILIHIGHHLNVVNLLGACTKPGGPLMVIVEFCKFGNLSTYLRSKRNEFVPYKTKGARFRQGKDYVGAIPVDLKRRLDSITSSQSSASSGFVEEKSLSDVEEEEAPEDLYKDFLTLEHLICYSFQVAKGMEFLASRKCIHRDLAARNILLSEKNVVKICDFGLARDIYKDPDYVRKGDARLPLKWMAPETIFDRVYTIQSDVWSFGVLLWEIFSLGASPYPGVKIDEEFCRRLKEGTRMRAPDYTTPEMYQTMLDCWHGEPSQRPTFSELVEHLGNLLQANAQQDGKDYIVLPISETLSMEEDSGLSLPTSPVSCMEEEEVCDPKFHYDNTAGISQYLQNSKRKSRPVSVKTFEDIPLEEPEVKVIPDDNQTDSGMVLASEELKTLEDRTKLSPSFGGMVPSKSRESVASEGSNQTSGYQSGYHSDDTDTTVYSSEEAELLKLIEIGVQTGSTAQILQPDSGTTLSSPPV", "experiment": "PTK activity in KDR/Flk-1-NIH3T3 cells", "assay_type": "cell-based"}, "Flt-1": {"biological_target": "Flt-1 (Homo sapiens, UniProt P17948)", "sequence (P17948 27-1338, species assumed)": "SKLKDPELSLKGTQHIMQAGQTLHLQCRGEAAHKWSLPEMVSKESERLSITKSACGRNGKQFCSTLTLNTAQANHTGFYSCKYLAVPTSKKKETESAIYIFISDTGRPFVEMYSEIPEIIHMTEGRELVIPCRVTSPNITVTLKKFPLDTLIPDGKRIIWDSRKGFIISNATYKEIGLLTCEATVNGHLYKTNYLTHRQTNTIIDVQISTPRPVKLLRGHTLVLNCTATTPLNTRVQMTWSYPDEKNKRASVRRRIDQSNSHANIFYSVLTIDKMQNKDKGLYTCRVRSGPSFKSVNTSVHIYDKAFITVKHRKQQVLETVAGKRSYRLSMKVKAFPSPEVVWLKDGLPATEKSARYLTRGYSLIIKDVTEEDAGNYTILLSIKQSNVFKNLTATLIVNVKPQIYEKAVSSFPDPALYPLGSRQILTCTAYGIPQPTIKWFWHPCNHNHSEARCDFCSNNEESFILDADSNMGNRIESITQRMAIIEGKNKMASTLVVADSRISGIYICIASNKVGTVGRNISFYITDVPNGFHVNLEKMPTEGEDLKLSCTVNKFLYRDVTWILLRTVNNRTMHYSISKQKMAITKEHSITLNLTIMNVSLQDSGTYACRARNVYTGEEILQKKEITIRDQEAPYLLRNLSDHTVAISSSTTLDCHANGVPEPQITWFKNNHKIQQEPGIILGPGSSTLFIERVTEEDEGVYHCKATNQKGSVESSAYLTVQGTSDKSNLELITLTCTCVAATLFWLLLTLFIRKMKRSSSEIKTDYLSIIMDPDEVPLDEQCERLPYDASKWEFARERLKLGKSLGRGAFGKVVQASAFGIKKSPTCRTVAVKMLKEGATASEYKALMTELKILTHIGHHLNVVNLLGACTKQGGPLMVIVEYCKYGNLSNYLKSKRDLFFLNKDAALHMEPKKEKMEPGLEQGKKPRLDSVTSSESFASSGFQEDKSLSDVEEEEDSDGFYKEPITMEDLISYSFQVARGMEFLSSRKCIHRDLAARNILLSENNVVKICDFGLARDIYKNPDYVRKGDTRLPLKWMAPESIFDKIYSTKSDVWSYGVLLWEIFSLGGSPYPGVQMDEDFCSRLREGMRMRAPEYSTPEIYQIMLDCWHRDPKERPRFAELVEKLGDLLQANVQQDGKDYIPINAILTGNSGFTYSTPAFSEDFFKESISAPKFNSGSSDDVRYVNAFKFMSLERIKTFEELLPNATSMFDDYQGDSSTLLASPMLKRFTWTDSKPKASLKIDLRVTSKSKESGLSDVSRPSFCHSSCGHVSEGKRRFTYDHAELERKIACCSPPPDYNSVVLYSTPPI", "experiment": "PTK activity in Flt-1-overexpressing NIH3T3 cells", "assay_type": "cell-based"}, "[8]": {"biological_target": "catalytic subunit of protein kinase A (Bos taurus, UniProt P00517)", "experiment": "Activity of isolated catalytic subunit of protein kinase A", "assay_type": "biochemical, bovine", "details": "treatment with as much as 100 M; results not shown"}, "DMS114": {"system": "DMS114", "experiment": "Cell death in human cancer cell line panel", "assay_type": "cell-based", "details": "DMS114 lung cancer cells, 48 h"}, "NCI-H522": {"system": "NCI-H522", "experiment": "Cell death in human cancer cell line panel", "assay_type": "cell-based", "details": "NCI-H522 lung cancer cells, 48 h"}, "SR-3Y1 cells": {"system": "SR-3Y1 cells", "experiment": "Cell-growth inhibition of SR-3Y1 cells", "assay_type": "cell-based", "details": "SR3Y1, read-out: IC50 for cell-growth inhibition"}, "A431 cells": {"system": "A431 cells", "experiment": "Cell-growth inhibition of carcinoma A431 cells", "assay_type": "cell-based", "details": "Homo sapiens, A-431, read-out: IC50 for cell-growth inhibition"}, "HL-60 cells": {"system": "HL-60 cells", "details": "cited from earlier work"}},
  "note": "Like-named read-outs stand apart in the source and are kept apart here.",
  "data": [
    {"smiles": "CNc1cc2c(Nc3cccc(Br)c3)ncnc2cn1", "note": "[PD158780, 4‐[(3‐bromophenyl)amino]‐6‐(methylamino)‐pyrido[3,4‐d]pyrimidine]", "values": [
      {"measurement": "mode of inhibition of PTK activity of EGFR with respect to ATP", "setting": "EGFR [1]", "value": "competition with ATP"}
    ]},
    {"smiles": "Cc1[nH]c(/C=C2\\C(=O)Nc3ccccc32)c(C)c1CCC(=O)O", "note": "[SU6668]", "values": [
      {"measurement": "mode of inhibition of receptor for fibroblast growth factor with respect to ATP", "setting": "[2]", "value": "compete with ATP"}
    ]},
    {"smiles": "O=CN/C=C/c1cc(O)ccc1O", "note": "[erbstatin]", "values": [
      {"measurement": "mode of inhibition of PTK activity of EGFR with respect to ATP", "setting": "EGFR [1]", "value": "competition with ATP"}
    ]},
    {"smiles": "O=c1c(-c2ccc(O)cc2)coc2cc(O)cc(O)c12", "note": "[genistein]", "values": [
      {"measurement": "mode of inhibition of PTK activity of EGFR with respect to ATP", "setting": "EGFR [1]", "value": "competition with ATP"}
    ]},
    {"smiles": "O=C(O)c1cc(N(Cc2ccccc2O)Cc2cc(O)ccc2O)ccc1O", "note": "[lavendastin-A]", "values": [
      {"measurement": "mode of inhibition of PTK activity of EGFR with respect to ATP", "setting": "EGFR [1]", "value": "competition with ATP"}
    ]},
    {"smiles": "O=c1c(O)c(-c2ccc(O)c(O)c2)oc2cc(O)cc(O)c12", "note": "[quercetin]", "values": [
      {"measurement": "mode of inhibition of v-Src with respect to ATP", "setting": "v-Src [3]", "value": "competition with ATP"},
      {"measurement": "IC50", "setting": "v-Src [3]; read-out: IC50 on v-Src", "value": 3000, "unit": "nM"}
    ]},
    {"smiles": "CC(C)=CC[C@@H](O)C1=CC(=O)c2c(O)ccc(O)c2C1=O", "note": "[shikonin, reference compound]", "values": [
      {"measurement": "intensities of bands of proteins phosphorylated by PTK", "setting": "PTK", "value": "decreased markedly"},
      {"measurement": "induction of cell death across the panel", "setting": "[4]", "value": "induced cell death in a wide variety of tumor cell lines"},
      {"measurement": "intensities of bands of proteins phosphorylated by protein kinase C", "setting": "protein kinase C", "value": "not significantly altered"},
      {"measurement": "intensities of bands of proteins phosphorylated by eEF-2 kinase and CaMK III", "setting": "[5]", "value": "not significantly altered"},
      {"measurement": "IC50 for EGFR", "setting": "EGFR [6]; EGFR isolated from A431 cells, estimated from Fig. 4B", "value": "impossible to estimate"},
      {"measurement": "concentration required for inhibition of the PTK activity of EGFR", "setting": "EGFR [6]; Fig. 4A", "value": "more than 10 M"},
      {"measurement": "inhibition of topoisomerase I activity", "setting": "topoisomerases I", "value": "inhibit"},
      {"measurement": "antitumor activity", "setting": "sarcoma 180 tumor cells", "value": "exhibits antitumor activity"},
      {"measurement": "intensities of bands of proteins phosphorylated by protein kinase A", "setting": "protein kinase A", "value": "not significantly altered"},
      {"measurement": "PTK activity of v-Src remaining in the presence of inhibitor", "setting": "v-Src [7]; lowest level reached over concentrations tested (Fig. 5)", "value": "≥ 50", "unit": "%"},
      {"measurement": "inhibition of topoisomerase II activity", "setting": "topoisomerases II", "value": "inhibit"},
      {"measurement": "inhibition of PTK activity of KDR/Flk-1 (in words)", "setting": "KDR/Flk-1; KDR/Flk-1-NIH3T3 cells", "value": "inhibited significantly"}
    ]},
    {"smiles": "CC(C)=CC[C@@H](OC(=O)CC(C)(C)O)C1=CC(=O)c2c(O)ccc(O)c2C1=O", "note": "[β‐HIVS, β‐Hydroxyisovalerylshikonin]", "values": [
      {"measurement": "IC50", "setting": "Flt-1", "value": "> 5000", "unit": "nM"},
      {"measurement": "intensities of bands of proteins phosphorylated by PTK", "setting": "PTK", "value": "decreased markedly"},
      {"measurement": "change in activity of catalytic subunit of protein kinase A", "setting": "[8]", "value": "practically no change"},
      {"measurement": "induction of cell-death", "setting": "DMS114", "value": "efficiently induced cell-death"},
      {"measurement": "intensities of bands of proteins phosphorylated by protein kinase C", "setting": "protein kinase C", "value": "not significantly altered"},
      {"measurement": "intensities of bands of proteins phosphorylated by eEF-2 kinase and CaMK III", "setting": "[5]", "value": "not significantly altered"},
      {"measurement": "IC50", "setting": "EGFR [6]", "value": "~700", "unit": "nM"},
      {"measurement": "inhibition of tyrosine kinase activity of EGFR (in words)", "setting": "EGFR [6]", "value": "strongly inhibited"},
      {"measurement": "inhibition of tyrosine phosphorylation of EGFR", "setting": "EGFR [6]", "value": "evident"},
      {"measurement": "induction of cell-death", "setting": "NCI-H522", "value": "efficiently induced cell-death"},
      {"measurement": "IC50", "setting": "SR-3Y1 cells", "value": "~1200", "unit": "nM"},
      {"measurement": "intensities of bands of proteins phosphorylated by protein kinase A", "setting": "protein kinase A", "value": "not significantly altered"},
      {"measurement": "IC50", "setting": "v-Src [7]", "value": "~1000", "unit": "nM"},
      {"measurement": "inhibition of tyrosine kinase activity of v-Src (in words)", "setting": "v-Src [7]", "value": "strongly inhibited"},
      {"measurement": "mode of inhibition of v-Src with respect to ATP", "setting": "v-Src [7]; Lineweaver-Burk, 1 and 10 M inhibitor", "value": "non‐competitive"},
      {"measurement": "mode of inhibition of v-Src with respect to ATP", "setting": "v-Src [7]; Lineweaver-Burk, 1 and 10 M inhibitor, listed as -HIVS", "value": "did not compete with ATP"},
      {"measurement": "mode of inhibition of v-Src with respect to substrate Raytide", "setting": "v-Src [7]; Lineweaver-Burk, various Raytide concentrations, 1 and 10 M inhibitor", "value": "competitively inhibited"},
      {"measurement": "IC50", "setting": "A431 cells", "value": "~11000", "unit": "nM"},
      {"measurement": "induction of apoptosis", "setting": "HL-60 cells", "value": "induced apoptosis"},
      {"measurement": "IC50", "setting": "KDR/Flk-1", "value": "~2500", "unit": "nM"},
      {"measurement": "concentration needed to inhibit the tyrosine kinase activity of KDR/Flk-1", "setting": "KDR/Flk-1; KDR/Flk-1-NIH3T3 cells", "value": "more than 1 M"},
      {"measurement": "inhibition of PTK activity of KDR/Flk-1 (in words)", "setting": "KDR/Flk-1; KDR/Flk-1-NIH3T3 cells", "value": "weakly inhibited"},
      {"measurement": "inhibition of PTK activity of KDR/Flk-1 (in words)", "setting": "KDR/Flk-1; KDR/Flk-1-NIH3T3 cells, listed as -HIVS", "value": "inhibited significantly"}
    ]}
  ]
}
